In article PMC8279981, “A first-in-human, phase 1 study of the NEDD8 activating enzyme E1 inhibitor TAS4464 in patients with advanced solid tumors” (Investigational New Drugs, 2021):

Tested on: patients with advanced or metastatic solid tumors
Test: Phase 1 study: treatment-related adverse events (NCI CTCAE v4.03)
Format: in vivo, human
Protocol: The highest non-severely toxic dose was derived from a dog toxicology study and was used to calculate a clinical starting dose of 10 mg/m^2, which corresponds to one-sixth of the human-equivalent dose. The maximum tolerated dose (MTD) of TAS4464 was investigated using an accelerated titration design. Initially, the starting TAS4464 dose was 10 mg/m^2 and was followed by an initial accelerated stage (i.e., weekly dosing phase) with 100% dose-step increments (level 1: 10 mg/m^2, level 2: 20 mg/m^2, level 3: 40 mg/m^2, and level 4: 56 mg/m^2). The 100% dose-step increments continued until the occurrence of a grade ≥ 2 drug-related toxicity within Cycle 1; dose-limiting toxicity (DLT) within Cycle 1; the next dose level reaching 60 mg/m^2; or any safety concerns. Thereafter, 40% increments were employed in the standard stage.
In the standard stage, three to six patients were to be enrolled, and the dose was escalated in 40% increments if none of the first three patients experienced a DLT. If one patient experienced a DLT, three additional patients were to be enrolled at the same dose level. If two of three or two of six patients experienced a DLT, the dose escalation was to be ceased. […] Additionally, DLT criteria regarding abnormal liver function and discontinuation criteria for study drug administration were added. The TAS4464 dose level for Day 1 of Cycle 1 was then set to 40 mg/m^2 (level 3).
Therefore, TAS4464 was administered every 7 days by 1-h intravenous infusion (± 10 min) at the dose assigned to each level. Study treatment was repeated every 28 days. The dosing regimens of each cohort are summarized in Supplementary Fig. 1.
Secondary objectives included assessment of AEs, treatment-related AEs, objective response rate (ORR), disease control rate (DCR), progression-free survival (PFS), and PK, pharmacodynamic, and pharmacogenomic (PGx) parameters with TAS4464 administration. The National Cancer Institute Common Terminology Criteria for Adverse Events (NCI CTCAE) v4.03 [17] was used to assess the severity of AEs. […] RECIST v1.1 [16] was used to determine clinical response, and all computed tomography images were assessed by the physician at the study site after completion of the imaging procedure. The ORR was defined as the percentage of patients with the best overall response of complete response (CR) or partial response (PR). The DCR was the percentage of patients with a best overall response of CR, PR, stable disease (SD), or non-CR/non-progressive disease (PD). PFS was defined as the time from the date of enrollment until the date of investigator-assessed radiological disease progression or death due to any cause, whichever occurred first.

[1] = All-grade, weekly dosing Level 1 (10 mg/m^2), n = 1
[2] = All-grade, weekly dosing Level 2 (20 mg/m^2), n = 1
[3] = All-grade, weekly dosing Level 3 (40 mg/m^2), n = 3
[4] = All-grade, weekly dosing Level 4 (56 mg/m^2), n = 5
[5] = All-grade, weekly dosing with lead-in Level 3 (20 → 40 mg/m^2), n = 3
[6] = All-grade, weekly dosing with lead-in Level 4 (20 → 56 mg/m^2), n = 3

For `CCOc1cccc(F)c1C#Cc1cn([C@@H]2O[C@H](CNS(N)(=O)=O)[C@@H](O)[C@H]2O)c2ncnc(N)c12` [TAS4464], the “Grade ≥ 2 abnormal liver function tests” value (10 or 20 mg/m^2 weekly doses) was “did not occur”, the “Grade ≥ 2 abnormal liver function tests” value (40 and 56 mg/m^2 weekly doses) was “five patients” and the “AEs leading to dose reduction” value (ALT increased, weekly dosing level 4) was “one patient each”. The “AEs leading to treatment discontinuation” value (AST and ALT increased, weekly dosing with lead-in period level 4) was “one patient each”, the “ALP increased (treatment-related adverse event)” value (“ALP increased” for short) (All-grade, Total, N = 16) was 7 (43.8) n (%) and the “ALT increased (treatment-related adverse event)” value (shortened to “ALT increased”) (All-grade, Total, N = 16) was 11 (68.8) n (%). For the same compound, the “AST increased (treatment-related adverse event)” value (“AST increased” below) (All-grade, Total, N = 16) was 10 (62.5) n (%), the “Anemia (treatment-related adverse event)” value (All-grade, Total, N = 16) was 3 (18.8) n (%) and the “Blood bilirubin increased (treatment-related adverse event)” value (from here on “Blood bilirubin increased”) (All-grade, Total, N = 16) was 3 (18.8) n (%). For the same compound, the “Decreased appetite (treatment-related adverse event)” value (from here on “Decreased appetite”) (All-grade, Total, N = 16) was 5 (31.3) n (%), the “Diarrhea (treatment-related adverse event)” value (shortened to “Diarrhea”) (All-grade, Total, N = 16) was 3 (18.8) n (%) and the “Fatigue (treatment-related adverse event)” value (from here on “Fatigue”) (All-grade, Total, N = 16) was 2 (12.5) n (%). For the same compound, the “GGT increased (treatment-related adverse event)” value (“GGT increased” below) (All-grade, Total, N = 16) was 4 (25.0) n (%), the “Hypoalbuminemia (treatment-related adverse event)” value (“Hypoalbuminemia” for short) (All-grade, Total, N = 16) was 2 (12.5) n (%) and the “Malaise (treatment-related adverse event)” value (“Malaise” below) (All-grade, Total, N = 16) was 3 (18.8) n (%). For the same compound, the “Nausea (treatment-related adverse event)” value (All-grade, Total, N = 16) was 7 (43.8) n (%), the “Neuropathy peripheral (treatment-related adverse event)” value (shortened to “Neuropathy peripheral”) (All-grade, Total, N = 16) was 2 (12.5) n (%) and the “Pyrexia (treatment-related adverse event)” value (shortened to “Pyrexia”) (All-grade, Total, N = 16) was 2 (12.5) n (%). The “Rash (treatment-related adverse event)” value (All-grade, Total, N = 16) was 3 (18.8) n (%), the “Vomiting (treatment-related adverse event)” value (“Vomiting” for short) (All-grade, Total, N = 16) was 4 (25.0) n (%) and the “WBC decreased (treatment-related adverse event)” value (“WBC decreased” for short) (All-grade, Total, N = 16) was 3 (18.8) n (%). The “ALP increased” value [1] was 0 n (%), the “ALT increased” value [1] was 1 (100.0) n (%) and the “AST increased” value [1] was 1 (100.0) n (%). The “Anemia (treatment-related adverse event)” value [1] was 0 n (%), the “Blood bilirubin increased” value [1] was 0 n (%) and the “Decreased appetite” value [1] was 0 n (%). For the same compound, the “Diarrhea” value [1] was 0 n (%), the “Fatigue” value [1] was 0 n (%) and the “GGT increased” value [1] was 0 n (%). The “Hypoalbuminemia” value [1] was 1 (100.0) n (%), the “Malaise” value [1] was 0 n (%) and the “Nausea (treatment-related adverse event)” value [1] was 0 n (%). For the same compound, the “Neuropathy peripheral” value [1] was 0 n (%), the “Pyrexia” value [1] was 0 n (%) and the “Rash (treatment-related adverse event)” value [1] was 0 n (%). For the same compound, the “Vomiting” value [1] was 0 n (%), the “WBC decreased” value [1] was 0 n (%) and the “ALP increased” value [2] was 0 n (%). For the same compound, the “ALT increased” value [2] was 1 (100.0) n (%), the “AST increased” value [2] was 0 n (%) and the “Anemia (treatment-related adverse event)” value [2] was 0 n (%). The “Blood bilirubin increased” value [2] was 0 n (%), the “Decreased appetite” value [2] was 0 n (%) and the “Diarrhea” value [2] was 0 n (%). For the same compound, the “Fatigue” value [2] was 0 n (%), the “GGT increased” value [2] was 0 n (%) and the “Hypoalbuminemia” value [2] was 0 n (%). For the same compound, the “Malaise” value [2] was 0 n (%), the “Nausea (treatment-related adverse event)” value [2] was 0 n (%) and the “Neuropathy peripheral” value [2] was 0 n (%). For the same compound, the “Pyrexia” value [2] was 0 n (%), the “Rash (treatment-related adverse event)” value [2] was 0 n (%) and the “Vomiting” value [2] was 0 n (%). The “WBC decreased” value [2] was 0 n (%), the “ALP increased” value [3] was 2 (66.7) n (%) and the “ALT increased” value [3] was 1 (33.3) n (%). The “AST increased” value [3] was 1 (33.3) n (%), the “Anemia (treatment-related adverse event)” value [3] was 0 n (%) and the “Blood bilirubin increased” value [3] was 1 (33.3) n (%). The “Decreased appetite” value [3] was 2 (66.7) n (%), the “Diarrhea” value [3] was 1 (33.3) n (%) and the “Fatigue” value [3] was 1 (33.3) n (%). For the same compound, the “GGT increased” value [3] was 1 (33.3) n (%), the “Hypoalbuminemia” value [3] was 1 (33.3) n (%) and the “Malaise” value [3] was 1 (33.3) n (%). For the same compound, the “Nausea (treatment-related adverse event)” value [3] was 2 (66.7) n (%), the “Neuropathy peripheral” value [3] was 0 n (%) and the “Pyrexia” value [3] was 0 n (%). The “Rash (treatment-related adverse event)” value [3] was 0 n (%), the “Vomiting” value [3] was 1 (33.3) n (%) and the “WBC decreased” value [3] was 1 (33.3) n (%). For the same compound, the “ALP increased” value [4] was 4 (80.0) n (%), the “ALT increased” value [4] was 5 (100.0) n (%) and the “AST increased” value [4] was 4 (80.0) n (%). The “Anemia (treatment-related adverse event)” value [4] was 1 (20.0) n (%), the “Blood bilirubin increased” value [4] was 2 (40.0) n (%) and the “Decreased appetite” value [4] was 2 (40.0) n (%). For the same compound, the “Diarrhea” value [4] was 2 (40.0) n (%), the “Fatigue” value [4] was 1 (20.0) n (%) and the “GGT increased” value [4] was 3 (60.0) n (%). For the same compound, the “Hypoalbuminemia” value [4] was 0 n (%), the “Malaise” value [4] was 2 (40.0) n (%) and the “Nausea (treatment-related adverse event)” value [4] was 4 (80.0) n (%). For the same compound, the “Neuropathy peripheral” value [4] was 2 (40.0) n (%), the “Pyrexia” value [4] was 0 n (%) and the “Rash (treatment-related adverse event)” value [4] was 2 (40.0) n (%). For the same compound, the “Vomiting” value [4] was 2 (40.0) n (%), the “WBC decreased” value [4] was 1 (20.0) n (%) and the “ALP increased” value [5] was 0 n (%). For the same compound, the “ALT increased” value [5] was 1 (33.3) n (%), the “AST increased” value [5] was 2 (66.7) n (%) and the “Anemia (treatment-related adverse event)” value [5] was 1 (33.3) n (%). For the same compound, the “Blood bilirubin increased” value [5] was 0 n (%), the “Decreased appetite” value [5] was 1 (33.3) n (%) and the “Diarrhea” value [5] was 0 n (%). For the same compound, the “Fatigue” value [5] was 0 n (%), the “GGT increased” value [5] was 0 n (%) and the “Hypoalbuminemia” value [5] was 0 n (%). For the same compound, the “Malaise” value [5] was 0 n (%), the “Nausea (treatment-related adverse event)” value [5] was 1 (33.3) n (%) and the “Neuropathy peripheral” value [5] was 0 n (%). For the same compound, the “Pyrexia” value [5] was 2 (66.7) n (%), the “Rash (treatment-related adverse event)” value [5] was 0 n (%) and the “Vomiting” value [5] was 1 (33.3) n (%). The “WBC decreased” value [5] was 0 n (%), the “ALP increased” value [6] was 1 (33.3) n (%) and the “ALT increased” value [6] was 2 (66.7) n (%). For the same compound, the “AST increased” value [6] was 2 (66.7) n (%), the “Anemia (treatment-related adverse event)” value [6] was 1 (33.3) n (%) and the “Blood bilirubin increased” value [6] was 0 n (%). The “Decreased appetite” value [6] was 0 n (%), the “Diarrhea” value [6] was 0 n (%) and the “Fatigue” value [6] was 0 n (%). For the same compound, the “GGT increased” value [6] was 0 n (%), the “Hypoalbuminemia” value [6] was 0 n (%) and the “Malaise” value [6] was 0 n (%). For the same compound, the “Nausea (treatment-related adverse event)” value [6] was 0 n (%), the “Neuropathy peripheral” value [6] was 0 n (%) and the “Pyrexia” value [6] was 0 n (%). The “Rash (treatment-related adverse event)” value [6] was 1 (33.3) n (%), the “Vomiting” value [6] was 0 n (%) and the “WBC decreased” value [6] was 1 (33.3) n (%). The “ALP increased” value (Grade ≥ 3, Total, N = 16) was 1 (6.3) n (%), the “ALT increased” value (Grade ≥ 3, Total, N = 16) was 5 (31.3) n (%) and the “AST increased” value (Grade ≥ 3, Total, N = 16) was 5 (31.3) n (%).
